One assay concerns PAO1-L mCTX::PpqsA-lux. Kind of assay: PpqsA-lux bioreporter assay, strain PAO1-L. The assay is classed as cell-based, Pseudomonas aeruginosa. Conditions: Pseudomonas aeruginosa, PAO1, read-out: IC50 PAO1-L. The procedure: In silico virtual screening was performed on the PqsR ligand binding domain (LBD) crystal structure [PDB: 4JVI; (Ilangovan et al., [2013])] using the University of Nottingham Managed Chemical Compound Collection (MCCC) containing 85,061 compounds. Molecular docking was performed using both the OpenEye docking (OpenEye Scientific Software Inc. (Hawkins et al., [2007]) and Schrödinger Suite for molecular modeling (Friesner et al., [2004]; Halgren et al., [2004]). A cut off value of the docking score function was set to -9.0 and the resulting high scoring compounds were further examined (Friesner et al., [2004]; Halgren et al., [2004]). This gave a library of around 500 diverse molecules that were evaluated using in vitro screening in a P. aeruginosa PAO1-L mCTX::PPqsA-lux reporter assay (Diggle et al., [2011]).
To inform the structural variation of 7, crystal structures with the endogenous ligand [4-hydroxy-2-heptylquinoline (NHQ)] and the inhibitor M64 were used (Ilangovan et al., [2013]; Kitao et al., [2018]). The PqsR LBD is dominated by lipophilic interactions, therefore the current SAR exploration mainly focused on varying the aromatic tail substituents and examining the effect of 8-position substitution. The rationale for these modifications was primarily based on molecular docking studies that provided insights into the mode of binding of 7 and approaches intended to improve potency. The substituent at the para- position of the aromatic ring appeared to be crucial for biological activity due to the vital π-π stacking interaction of this group with Tyr^258. […] These strains emit light upon activation of PqsR by the endogenous production of these signal molecules. […] The results of the SAR in this assay highlight the importance of testing any prospective anti-virulence strategy on multiple genetically distinct P. aeruginosa strains as a means to reduce the chance of failure at both pre-clinical and clinical stages (Freschi et al., [2015]).
PAO1-L Wild type PAO1, Lausanne subline. B.
PAO1-L mCTX::PpqsA- PAO1-L with chromosomal mini-CTX::PpqsA-lux (Soukarieh lux insertion; TcR et al., 2018) […]
mini-CTX::PpqsA-lux R6K-based mini-CTX suicide plasmid for the (Diggle et chromosomal insertion of a PpqsA-lux al., 2007) transcriptional reporter fusion; TcR
Biosensor reporter assay:
Strains PA14 mCTX::PpqsA-lux and PAO1-L mCTX::PpqsA-lux were constructed using plasmid mini-CTX::PpqsA-lux as previously described (Diggle et al., 2007) and the assay was performed according to published procedures (Fletcher et al., 2007). For screening, the compounds were tested at 10 µM concentration which was prepared from 10 mM stock in DMSO. […]
(In general: A reporter such as luciferase makes a cellular process visible.)

The test system of the next assay is PAO1-L biofilm cultures. As to the kind of experiment: AQ quantification in biofilm cultures. The assay is classed as cell-based, Pseudomonas aeruginosa. Particulars: M9 minimal medium, 10 μM, 18 h, versus DMSO control. An excerpt: Biofilms are a major challenge in the treatment of chronic P. aeruginosa infections because of their resilience and protection of bacteria from environmental stresses such as those posed by the host immune system and antimicrobial agents (Flemming et al., [2007]; Rybtke et al., [2015]). Many genes that are involved in biofilm formation are directly linked to pqs QS signaling (Rampioni et al., [2016]; Lin et al., [2018]). To evaluate the effect of 40 on AQ signaling in biofilm cultures, PAO1-L was grown in M9 minimal medium and challenged with either DMSO control or of 40 (10 μM). Following incubation and cell removal, supernatants were subjected to LC/MS-MS analysis.
Figure 6 Quantification of AQ concentrations in PAO1-L biofilm cultures treated with 40 (10 μM). […] Biofilms were grown in M9 minimal medium for 18 h in 24-well glass bottom plates and supernatants extracted for AQ analysis. […]
screening of the LC eluent for specific AQ analytes. Where chromatographic peaks for HHQ and PQS were detected, a peak area was determined and analyte peak area/internal standard peak area calculated.
AQ quantification in biofilm cultures: […]
For this experiment, the P. aeruginosa PAO1-L strain and M9 minimal medi um were used. […] The supernatant was col lected and the AQ extraction and quantification were performed following the LC MS/MS protocol described above . […]

Entries after “also recorded” stand apart in the source; their conditions may differ.

Consider one compound from PMC7213079, “Hit Identification of New Potent PqsR Antagonists as Inhibitors of Quorum Sensing in Planktonic and Biofilm Grown Pseudomonas aeruginosa” (Frontiers in Chemistry, 2020).

The term IC50 denotes the concentration that gives 50% inhibition.

`Cn1c2ccccc2c2nnc(SCC(=O)Nc3ccc(Oc4ccccn4)cc3)nc21` [Compound 40, 2-((5-Methyl-5H-[1,2,4]triazino[5,6-b]indol-3-yl)thio)-N-(4-(pyridin-2-yloxy)phenyl)acetamide]: the IC50 in the assay on PAO1-L mCTX::PpqsA-lux is 250 ± 120 nM. In the assay on PAO1-L biofilm cultures, the “biosynthesis of AQ signals in biofilm cultures” value was “effectively inhibit; also recorded: drastically reduced”.
